Assay results reported in ChEMBL document CHEMBL5550160, “Leveraging a rationally designed veliparib-based anilide eliciting anti-leukemic effects for the design of pH-responsive polymer nanoformulation” (Eur J Med Chem, 2024).
Active and inactive are the calls of the source. The rule behind the calls is not given here.

Experiments:
HL-60 [1] = test: Downregulation of HDAC1 protein expression in human HL-60 cells at 0.5 to 1 times IC50 by Western blot analysis; assay type: functional, cell-based
Histone deacetylase 2 [2] = biological target: T1, Histone deacetylase 2 (Homo sapiens, UniProt Q92769); test: Inhibition of HDAC2 (unknown origin) assessed as residual activity at 1.1 x 10^-6M (reference value: 99.81%); settings: dose 1.1 10^-6M
HL-60 [3] = test: Induction of cell cycle arrest in human HL-60 cells assessed as accumulation of cells at sub-G1 phase at 0.5 to 1 times IC50 by PI staining based flow cytometry analysis; assay type: functional
[4] = biological target: Histone deacetylase 4 (Homo sapiens) (UniProt P56524); test: Inhibition of HDAC4 (unknown origin) assessed as residual activity at 1.1 x 10^-6M (reference value: 98.90%); settings: dose 1.1 10^-6M
Histone deacetylase 2 [5] = biological target: T1, Histone deacetylase 2; test: Inhibition of HDAC2 (unknown origin) assessed as residual activity at 1.23 x 10^-7M (reference value: 99.81%); settings: dose 1.23 10^-7M
Histone deacetylase 1 [6] = biological target: T2, Histone deacetylase 1 (Homo sapiens, UniProt Q13547); test: Inhibition of HDAC1 (unknown origin) using p53 residues 379 to 382 [RHKK(Ac)] as fluorogenic substrate assessed as residual activity at 1.52 x 10^-9M (reference value: 98.06%); settings: dose 1.52 10^-9M
[7] = biological target: T3, Histone deacetylase 8 (Homo sapiens) (UniProt Q9BY41); test: Inhibition of HDAC8 (unknown origin) assessed as residual activity at 5.08 x 10^-10M (reference value: 100%); settings: dose 5.08 10^-10M
T3 sequence (whole entry): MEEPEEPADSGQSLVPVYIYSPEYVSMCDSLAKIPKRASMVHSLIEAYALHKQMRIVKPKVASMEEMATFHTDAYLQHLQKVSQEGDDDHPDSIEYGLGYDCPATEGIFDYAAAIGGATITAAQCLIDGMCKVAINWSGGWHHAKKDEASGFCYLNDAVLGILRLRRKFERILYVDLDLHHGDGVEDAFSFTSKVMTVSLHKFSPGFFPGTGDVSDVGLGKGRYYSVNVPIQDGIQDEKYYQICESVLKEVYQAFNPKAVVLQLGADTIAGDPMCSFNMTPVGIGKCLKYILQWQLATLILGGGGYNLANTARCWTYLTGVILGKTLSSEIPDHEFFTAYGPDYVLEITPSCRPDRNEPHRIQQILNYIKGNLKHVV

Histone deacetylase 1 [8] = biological target: T2, Histone deacetylase 1; test: Inhibition of HDAC1 (unknown origin) using p53 residues 379 to 382 [RHKK(Ac)] as fluorogenic substrate assessed as residual activity at 1.11 x 10^-6M (reference value: 98.06%); settings: dose 1.11 10^-6M
[9] = biological target: Histone deacetylase 5 (Homo sapiens) (UniProt Q9UQL6); test: Inhibition of HDAC5 (unknown origin) assessed as residual activity at 3.33 x 10^-6M (reference value: 100%); settings: dose 3.33 10^-6M
HL-60 [10] = test: Induction of apoptosis in human HL-60 cells assessed as cell shrinkage at 0.5 to 1 times IC50 by DAPI staining based microscopic analysis; assay type: functional
[11] = biological target: T4, Protein deacetylase HDAC6 (Homo sapiens) (UniProt Q9UBN7); test: Inhibition of HDAC6 (unknown origin) using p53 residues 379 to 382 [RHKK(Ac)] as fluorogenic substrate assessed as residual activity at 1.52 x 10^-9M (reference value: 101.06%); settings: dose 1.52 10^-9M
T4 sequence (whole entry): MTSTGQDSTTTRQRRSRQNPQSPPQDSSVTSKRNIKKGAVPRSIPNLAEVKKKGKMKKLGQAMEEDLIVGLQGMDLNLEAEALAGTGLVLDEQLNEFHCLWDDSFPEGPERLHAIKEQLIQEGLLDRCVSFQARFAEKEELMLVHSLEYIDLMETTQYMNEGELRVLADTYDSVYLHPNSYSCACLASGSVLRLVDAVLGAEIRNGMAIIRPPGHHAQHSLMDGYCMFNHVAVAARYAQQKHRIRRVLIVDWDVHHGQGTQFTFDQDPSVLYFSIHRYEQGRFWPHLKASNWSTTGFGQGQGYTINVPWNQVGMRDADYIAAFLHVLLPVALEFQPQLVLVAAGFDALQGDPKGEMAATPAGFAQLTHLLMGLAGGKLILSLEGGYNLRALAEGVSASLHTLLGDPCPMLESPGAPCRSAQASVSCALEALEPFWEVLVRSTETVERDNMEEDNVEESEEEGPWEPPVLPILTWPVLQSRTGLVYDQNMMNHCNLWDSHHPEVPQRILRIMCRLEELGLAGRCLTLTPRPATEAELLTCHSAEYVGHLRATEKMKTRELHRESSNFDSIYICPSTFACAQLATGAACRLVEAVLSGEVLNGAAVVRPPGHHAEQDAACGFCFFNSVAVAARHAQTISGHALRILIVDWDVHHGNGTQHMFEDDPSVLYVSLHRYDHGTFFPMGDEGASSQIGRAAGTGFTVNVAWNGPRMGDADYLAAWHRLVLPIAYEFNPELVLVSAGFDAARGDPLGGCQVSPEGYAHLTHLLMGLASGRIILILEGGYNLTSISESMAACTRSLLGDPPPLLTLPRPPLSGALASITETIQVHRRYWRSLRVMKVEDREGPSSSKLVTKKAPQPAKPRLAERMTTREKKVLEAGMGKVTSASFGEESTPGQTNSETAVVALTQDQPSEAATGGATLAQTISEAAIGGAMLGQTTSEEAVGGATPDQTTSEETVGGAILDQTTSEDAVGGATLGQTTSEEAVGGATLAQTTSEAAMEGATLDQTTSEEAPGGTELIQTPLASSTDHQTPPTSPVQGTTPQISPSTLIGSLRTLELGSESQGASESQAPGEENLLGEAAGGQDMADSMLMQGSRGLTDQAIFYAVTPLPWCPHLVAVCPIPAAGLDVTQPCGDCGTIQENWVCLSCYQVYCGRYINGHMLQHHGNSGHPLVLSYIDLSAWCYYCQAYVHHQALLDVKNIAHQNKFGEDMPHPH

[12] = biological target: T3, Histone deacetylase 8 (Homo sapiens); test: Inhibition of HDAC8 (unknown origin) assessed as residual activity at 1.23 x 10^-7M (reference value: 100%); settings: dose 1.23 10^-7M
[13] = biological target: Histone deacetylase 5 (Homo sapiens) (UniProt Q9UQL6); test: Inhibition of HDAC5 (unknown origin) assessed as residual activity at 5.08 x 10^-10M (reference value: 100%); settings: dose 5.08 10^-10M
[14] = biological target: Histone deacetylase 9 (Homo sapiens) (UniProt Q9UKV0); test: Inhibition of HDAC9 (unknown origin) assessed as residual activity at 1.52 x 10^-9M (reference value: 97.55%); settings: dose 1.52 10^-9M
Histone deacetylase 3 [15] = biological target: T5, Histone deacetylase 3 (Homo sapiens, UniProt O15379); test: Inhibition of HDAC3 (unknown origin) using p53 residues 379 to 382 [RHKK(Ac)] as fluorogenic substrate assessed as residual activity at 5.08 x 10^-10M (reference value: 103.08%); settings: dose 5.08 10^-10M
Histone deacetylase 3 [16] = biological target: T5, Histone deacetylase 3; test: Inhibition of HDAC3 (unknown origin) using p53 residues 379 to 382 [RHKK(Ac)] as fluorogenic substrate assessed as residual activity at 4.12 x 10^-8M (reference value: 103.08%); settings: dose 4.12 10^-8M

Histone deacetylase 5 (Homo sapiens), sequence (Q9UQL6 whole entry): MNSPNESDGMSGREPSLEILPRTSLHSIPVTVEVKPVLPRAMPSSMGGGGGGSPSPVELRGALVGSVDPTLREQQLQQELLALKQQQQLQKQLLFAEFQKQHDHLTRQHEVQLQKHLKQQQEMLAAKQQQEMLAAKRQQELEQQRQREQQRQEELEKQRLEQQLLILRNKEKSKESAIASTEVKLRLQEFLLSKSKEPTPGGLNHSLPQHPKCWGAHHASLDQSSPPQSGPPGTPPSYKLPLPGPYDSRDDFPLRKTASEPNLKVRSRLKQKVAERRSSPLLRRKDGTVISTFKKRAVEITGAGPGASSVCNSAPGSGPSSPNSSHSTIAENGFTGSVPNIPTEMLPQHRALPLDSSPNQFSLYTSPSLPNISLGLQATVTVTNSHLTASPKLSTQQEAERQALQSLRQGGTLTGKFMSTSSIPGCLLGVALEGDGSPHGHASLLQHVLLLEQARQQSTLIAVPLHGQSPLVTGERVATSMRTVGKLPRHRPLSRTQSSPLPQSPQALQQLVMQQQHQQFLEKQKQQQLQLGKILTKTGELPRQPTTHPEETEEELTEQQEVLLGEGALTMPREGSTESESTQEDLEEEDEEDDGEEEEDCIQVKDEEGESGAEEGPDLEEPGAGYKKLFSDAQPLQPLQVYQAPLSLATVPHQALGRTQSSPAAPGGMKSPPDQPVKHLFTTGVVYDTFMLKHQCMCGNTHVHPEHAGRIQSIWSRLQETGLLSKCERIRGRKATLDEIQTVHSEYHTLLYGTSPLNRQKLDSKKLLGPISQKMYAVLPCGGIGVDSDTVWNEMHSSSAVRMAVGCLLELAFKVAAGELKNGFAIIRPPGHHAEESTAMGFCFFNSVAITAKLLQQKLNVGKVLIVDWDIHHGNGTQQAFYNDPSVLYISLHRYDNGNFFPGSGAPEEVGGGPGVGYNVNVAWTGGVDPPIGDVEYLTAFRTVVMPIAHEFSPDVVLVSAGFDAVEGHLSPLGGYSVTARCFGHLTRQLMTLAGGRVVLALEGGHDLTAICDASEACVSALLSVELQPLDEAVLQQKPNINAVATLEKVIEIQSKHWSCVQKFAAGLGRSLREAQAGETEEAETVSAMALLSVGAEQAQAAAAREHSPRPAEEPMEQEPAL
T2 sequence (Q13547 whole entry, the tested form may be a part): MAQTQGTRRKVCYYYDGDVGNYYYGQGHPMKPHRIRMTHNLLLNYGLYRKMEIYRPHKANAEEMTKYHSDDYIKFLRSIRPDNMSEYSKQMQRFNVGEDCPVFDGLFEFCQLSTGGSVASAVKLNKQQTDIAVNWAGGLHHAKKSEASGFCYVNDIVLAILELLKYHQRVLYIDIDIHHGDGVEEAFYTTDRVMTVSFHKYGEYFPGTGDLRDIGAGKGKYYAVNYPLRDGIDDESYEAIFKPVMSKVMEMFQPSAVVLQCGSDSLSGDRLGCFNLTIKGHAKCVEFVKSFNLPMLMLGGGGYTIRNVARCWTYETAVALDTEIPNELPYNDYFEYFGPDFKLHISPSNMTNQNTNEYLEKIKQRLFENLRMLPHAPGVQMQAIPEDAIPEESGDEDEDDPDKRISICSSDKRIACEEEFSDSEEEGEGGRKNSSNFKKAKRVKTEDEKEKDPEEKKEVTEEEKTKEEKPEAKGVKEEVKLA
T1 sequence (Q92769 whole entry): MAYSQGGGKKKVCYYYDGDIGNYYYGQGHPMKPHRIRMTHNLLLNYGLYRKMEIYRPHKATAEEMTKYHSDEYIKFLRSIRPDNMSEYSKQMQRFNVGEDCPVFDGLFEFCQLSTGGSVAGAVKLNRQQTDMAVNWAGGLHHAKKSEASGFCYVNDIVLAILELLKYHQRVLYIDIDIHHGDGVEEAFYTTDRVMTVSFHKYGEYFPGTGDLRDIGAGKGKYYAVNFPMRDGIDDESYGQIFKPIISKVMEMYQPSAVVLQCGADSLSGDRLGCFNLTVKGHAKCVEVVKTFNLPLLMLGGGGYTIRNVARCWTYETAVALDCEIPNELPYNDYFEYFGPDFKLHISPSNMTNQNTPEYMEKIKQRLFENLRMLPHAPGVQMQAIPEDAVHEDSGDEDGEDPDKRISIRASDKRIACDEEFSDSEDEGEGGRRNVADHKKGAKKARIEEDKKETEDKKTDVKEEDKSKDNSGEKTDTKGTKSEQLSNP
T5 sequence (O15379 whole entry, the tested form may be a part): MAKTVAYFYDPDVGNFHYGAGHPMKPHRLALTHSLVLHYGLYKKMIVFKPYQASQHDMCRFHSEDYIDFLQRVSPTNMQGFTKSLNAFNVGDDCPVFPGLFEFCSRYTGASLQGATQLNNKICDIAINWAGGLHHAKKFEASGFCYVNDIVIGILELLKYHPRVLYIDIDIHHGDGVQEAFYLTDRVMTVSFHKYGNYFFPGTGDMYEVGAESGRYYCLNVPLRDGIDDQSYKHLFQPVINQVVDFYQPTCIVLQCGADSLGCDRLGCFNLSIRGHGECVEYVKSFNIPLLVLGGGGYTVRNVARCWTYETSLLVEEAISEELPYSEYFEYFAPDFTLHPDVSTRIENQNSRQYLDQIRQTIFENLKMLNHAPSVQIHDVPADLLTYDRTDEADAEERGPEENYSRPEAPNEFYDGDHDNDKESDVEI
Histone deacetylase 9 (Homo sapiens), sequence (Q9UKV0 whole entry, the tested form may be a part): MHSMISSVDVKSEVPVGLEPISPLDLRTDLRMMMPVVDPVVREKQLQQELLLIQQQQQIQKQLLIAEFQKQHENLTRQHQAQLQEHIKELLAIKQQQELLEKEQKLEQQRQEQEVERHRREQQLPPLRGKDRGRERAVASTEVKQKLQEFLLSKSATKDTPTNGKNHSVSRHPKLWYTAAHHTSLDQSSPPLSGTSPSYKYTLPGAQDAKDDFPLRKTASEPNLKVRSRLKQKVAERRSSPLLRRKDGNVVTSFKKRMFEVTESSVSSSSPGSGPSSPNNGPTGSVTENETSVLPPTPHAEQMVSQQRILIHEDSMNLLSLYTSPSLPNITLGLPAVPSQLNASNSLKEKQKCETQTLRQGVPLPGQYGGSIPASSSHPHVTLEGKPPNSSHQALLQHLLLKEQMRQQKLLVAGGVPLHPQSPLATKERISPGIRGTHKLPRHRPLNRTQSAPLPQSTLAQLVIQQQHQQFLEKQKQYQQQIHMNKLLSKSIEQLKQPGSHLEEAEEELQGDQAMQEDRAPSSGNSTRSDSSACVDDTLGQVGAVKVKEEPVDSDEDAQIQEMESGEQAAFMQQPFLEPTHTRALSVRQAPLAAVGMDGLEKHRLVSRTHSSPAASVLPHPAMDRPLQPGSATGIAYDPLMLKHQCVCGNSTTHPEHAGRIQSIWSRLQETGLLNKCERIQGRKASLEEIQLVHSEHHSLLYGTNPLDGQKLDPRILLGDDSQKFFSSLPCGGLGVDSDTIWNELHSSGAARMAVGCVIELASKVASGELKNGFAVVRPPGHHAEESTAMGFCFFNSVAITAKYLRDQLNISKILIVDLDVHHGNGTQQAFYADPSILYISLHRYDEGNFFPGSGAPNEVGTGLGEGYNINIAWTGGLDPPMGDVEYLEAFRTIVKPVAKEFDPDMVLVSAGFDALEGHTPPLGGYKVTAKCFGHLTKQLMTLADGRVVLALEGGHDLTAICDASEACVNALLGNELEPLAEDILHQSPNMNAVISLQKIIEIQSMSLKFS
Histone deacetylase 4 (Homo sapiens), sequence (P56524 whole entry): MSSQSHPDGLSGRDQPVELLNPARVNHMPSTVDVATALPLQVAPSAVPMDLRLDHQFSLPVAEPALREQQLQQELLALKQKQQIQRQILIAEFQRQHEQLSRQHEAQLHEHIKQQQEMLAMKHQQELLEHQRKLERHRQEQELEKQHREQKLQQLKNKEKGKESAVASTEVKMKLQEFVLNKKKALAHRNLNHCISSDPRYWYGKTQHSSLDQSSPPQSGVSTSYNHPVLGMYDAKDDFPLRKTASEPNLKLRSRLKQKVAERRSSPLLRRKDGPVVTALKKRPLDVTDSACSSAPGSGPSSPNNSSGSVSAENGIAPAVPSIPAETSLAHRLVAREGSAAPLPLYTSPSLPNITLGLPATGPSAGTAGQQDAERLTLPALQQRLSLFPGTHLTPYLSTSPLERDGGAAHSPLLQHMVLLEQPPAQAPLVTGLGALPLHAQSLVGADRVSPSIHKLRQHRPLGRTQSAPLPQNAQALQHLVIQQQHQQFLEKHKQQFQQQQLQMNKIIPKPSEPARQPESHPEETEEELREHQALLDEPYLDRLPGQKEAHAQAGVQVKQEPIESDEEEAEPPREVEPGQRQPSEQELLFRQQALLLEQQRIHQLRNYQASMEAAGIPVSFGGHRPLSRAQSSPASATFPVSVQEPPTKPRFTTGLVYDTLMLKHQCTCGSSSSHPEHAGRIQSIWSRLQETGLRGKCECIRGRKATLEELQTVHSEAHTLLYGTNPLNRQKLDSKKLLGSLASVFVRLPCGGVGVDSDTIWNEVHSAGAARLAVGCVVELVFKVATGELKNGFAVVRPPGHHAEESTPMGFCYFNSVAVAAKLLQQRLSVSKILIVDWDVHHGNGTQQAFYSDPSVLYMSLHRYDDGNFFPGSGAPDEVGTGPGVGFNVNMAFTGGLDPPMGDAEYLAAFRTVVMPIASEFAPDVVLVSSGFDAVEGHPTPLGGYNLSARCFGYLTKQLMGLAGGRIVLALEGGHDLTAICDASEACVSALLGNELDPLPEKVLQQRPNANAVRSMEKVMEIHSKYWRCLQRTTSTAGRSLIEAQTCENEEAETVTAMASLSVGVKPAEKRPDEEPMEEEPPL

With `NC(=O)c1cccc2[nH]c(-c3ccc(NCc4ccc(C(=O)Nc5ccccc5N)cc4)cc3)nc12` the Activity (HL-60 [1]) was “Active”, the Activity (Histone deacetylase 2 [2]) was 12.8% and the Activity (HL-60 [3]) was “inactive”. It also gave an Activity [4] of 76.5%, an Activity (Histone deacetylase 2 [5]) of 56.5% and an Activity (Histone deacetylase 1 [6]) of 95.5%. For the same molecule, the Activity [7] was 105%, the Activity (Histone deacetylase 1 [8]) was 11% and the Activity [9] was 85.7%. The Activity (HL-60 [10]) was “inactive”, the Activity [11] was 96.7% and the Activity [12] was 104%. For the same molecule, the Activity [13] was 39%, the Activity [14] was 97.8% and the Activity (Histone deacetylase 3 [15]) was 107%. It also gave an Activity (Histone deacetylase 3 [16]) of 91.1%.
